Results: patent US20230083717A1, “METHODS AND COMPOSITIONS FOR PROMOTING ADIPOCYTE BEIGING” (Flagship Pioneering Innovations VI, LLC, priority 2021, published 2023)

Test system: UCP1
Experiment: in vivo assay of induction of beige adipocytes in visceral and subcutaneous fat depots
Details: 1 mg/kg intraperitoneal, C57Bl6/J mice, vs control mice
Protocol: An in vivo assay of induction of beige adipocytes in visceral and subcutaneous fat depots was established using the β3-receptor agonist CL316243. 8-week old male C57Bl6/J mice were dosed with 1 mg/kg CL316243 with intraperitoneal injections, either every day for 1 week or every other day for two weeks. The vehicle was used as a negative control. Following the dosage administration, the mice were sacrificed, and epididymal (visceral) and inguinal (subcutaneous) fat was excised. The expression of UCP1 was assessed in the excised epididymal (visceral) and inguinal (subcutaneous) fat, by western blot and immunohistochemistry. […] The adipose tissue cells in epididymal (visceral) and inguinal (subcutaneous) fat from CL 316234 treated mice were also smaller compared to the cells from control mice (FIG. 3A).

C[C@H](Cc1ccc2c(c1)OC(C(=O)O)(C(=O)O)O2)NC[C@H](O)c1cccc(Cl)c1 [CL 316234]
expression of UCP1 by immunohistochemistry in epididymal (visceral) and inguinal (subcutaneous) fat: increased expression of UCP1
expression of UCP1 by western blot in inguinal and epididymal fat: increased expression of UCP1
size of adipose tissue cells in epididymal and inguinal fat: smaller
